Data reported in BigSolDB 2.1.

CC(CCc1ccccc1)NCC(O)c1ccc(O)c(C(N)=O)c1.Cl (stereo unspecified)
solubility (mole fraction)
Conditions | in ethanol | in ethyl acetate | in isobutanol | in isopropanol | in methanol | in n-butanol | in n-propanol | in sec-butanol | in water
288.15 K | 0.00124 | 0.000116 | 0.000136 | 0.00011 | 0.00883 | 0.000385 | 0.000478 | 0.000167 | 0.000711
293.15 K | 0.00145 | 0.000163 | 0.000184 | 0.000164 | 0.0101 | 0.000467 | 0.00058 | 0.000211 | 0.000898
298.15 K | 0.0017 | 0.000237 | 0.000257 | 0.000253 | 0.0114 | 0.000565 | 0.00071 | 0.000278 | 0.00118
303.15 K | 0.00198 | 0.000302 | 0.000326 | 0.000355 | 0.013 | 0.000675 | 0.000841 | 0.000336 | 0.00145
308.15 K | 0.00222 | 0.000406 | 0.000429 | 0.000492 | 0.0144 | 0.000808 | 0.001 | 0.000411 | 0.00172
313.15 K | 0.00253 | 0.000531 | 0.00056 | 0.000675 | 0.0162 | 0.000967 | 0.00121 | 0.000515 | 0.00212
318.15 K | 0.00288 | 0.000689 | 0.000729 | 0.000985 | 0.0182 | 0.00116 | 0.00144 | 0.000643 | 0.00266
323.15 K | 0.0035 | 0.000823 | 0.000981 | 0.0014 | 0.0204 | 0.00136 | 0.00173 | 0.000804 | 0.00337
328.15 K | 0.00395 | 0.00109 | 0.00126 | 0.00194 | 0.0228 | 0.00163 | 0.00194 | 0.000983 | 0.00409
